Reference: ChEMBL document CHEMBL1125946, “Total synthesis of a homochiral arene-fused prostacyclin analog” (Bioorg Med Chem Lett, 1991)

Organism: Homo sapiens
Experiment: Concentration required for the inhibition of collagen induced platelet aggregation; inactive
Format: functional

SMILES: O=C(O)COc1ccc2c(c1)CC[C@@H]1[C@@H](C#C[C@@H](O)C3CCCCC3)[C@H](O)C[C@H]21
- IC50: > 10 µM
